Key:
Human melanocortin (MC5) = biological target: T1, Human melanocortin (MC5) (Homo sapiens, UniProt P33032); assay: Radioligand binding, human melanocortin MC5 membranes, FlashPlate, [125I]-NDP-αMSH; details: compound at 10 μM, [125I]-NDP-αMSH
T1 construct: purchased Perkin Elmer Biosignal
Procedure, shortened: (§1)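 Cloned human receptor membranes were coated onto FlashPlate wells and incubated with radioligand and compound (added from a 0.5 mM DMSO daughter plate) for 1 hour at room temperature in the dark. Scintillation counting gave percent inhibition, with DMSO defining total and reference ligand defining non-specific binding.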

Human neurokinin (NK1) = biological target: T2, Human neurokinin (NK1) (Homo sapiens, UniProt P25103); assay: Radioligand binding, human neurokinin NK1 membranes, filtration, [125I]-Substance P; details: compound at 10 μM, [125I]-Substance P
T2 construct: purchased Perkin Elmer Biosignal
T2 sequence (P25103 whole entry): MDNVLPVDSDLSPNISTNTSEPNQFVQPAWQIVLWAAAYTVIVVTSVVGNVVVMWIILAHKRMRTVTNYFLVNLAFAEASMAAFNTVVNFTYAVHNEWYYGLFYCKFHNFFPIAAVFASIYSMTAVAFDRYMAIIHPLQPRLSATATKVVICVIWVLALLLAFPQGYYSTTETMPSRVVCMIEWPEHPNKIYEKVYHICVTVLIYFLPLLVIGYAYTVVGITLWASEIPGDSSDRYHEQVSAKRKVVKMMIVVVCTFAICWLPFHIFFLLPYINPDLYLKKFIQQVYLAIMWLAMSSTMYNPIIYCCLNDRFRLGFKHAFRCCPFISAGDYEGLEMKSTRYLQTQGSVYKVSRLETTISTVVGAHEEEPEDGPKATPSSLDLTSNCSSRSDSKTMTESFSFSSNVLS
Procedure, shortened: (§2)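 Filtration binding on cloned human receptor membranes (1 Unit/well), [125I]-Substance P for NK1 and [3H]-Diprenorphine for KOP, 1 h at room temperature. Filters PEI-presoaked, washed with cold 50 mM Tris-HCl pH 7.4, counted by scintillation; percent inhibition calculated, reference ligand defining non-specific binding.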

Human μ-opioid (MOP) = biological target: T3, Human μ-opioid (MOP) (Homo sapiens, UniProt P35372); assay: Radioligand binding, human μ-opioid (MOP) membranes, FlashPlate, [3H]-Naloxone; details: compound at 10 μM, [3H]-Naloxone
T3 construct: purchased Perkin Elmer Biosignal
T3 sequence (P35372 whole entry): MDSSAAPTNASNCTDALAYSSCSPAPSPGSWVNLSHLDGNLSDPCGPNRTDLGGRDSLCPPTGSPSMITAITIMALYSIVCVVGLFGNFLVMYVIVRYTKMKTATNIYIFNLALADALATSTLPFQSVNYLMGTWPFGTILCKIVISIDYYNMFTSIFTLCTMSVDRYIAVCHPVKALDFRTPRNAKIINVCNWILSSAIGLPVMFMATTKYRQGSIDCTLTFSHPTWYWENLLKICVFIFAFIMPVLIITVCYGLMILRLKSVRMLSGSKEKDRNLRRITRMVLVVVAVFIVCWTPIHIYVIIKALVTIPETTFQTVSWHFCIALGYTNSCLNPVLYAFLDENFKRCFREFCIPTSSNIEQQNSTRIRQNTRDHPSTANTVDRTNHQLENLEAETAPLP
Procedure, shortened: as §1

Human opioid (ORL1) = biological target: T4, Human opioid (ORL1) (Homo sapiens, UniProt P41146); assay: Radioligand binding, human opioid ORL1 membranes, FlashPlate, [125I]-Nociceptin; details: compound at 10 μM, [125I]-Nociceptin
T4 construct: purchased Perkin Elmer Biosignal
T4 sequence (P41146 whole entry): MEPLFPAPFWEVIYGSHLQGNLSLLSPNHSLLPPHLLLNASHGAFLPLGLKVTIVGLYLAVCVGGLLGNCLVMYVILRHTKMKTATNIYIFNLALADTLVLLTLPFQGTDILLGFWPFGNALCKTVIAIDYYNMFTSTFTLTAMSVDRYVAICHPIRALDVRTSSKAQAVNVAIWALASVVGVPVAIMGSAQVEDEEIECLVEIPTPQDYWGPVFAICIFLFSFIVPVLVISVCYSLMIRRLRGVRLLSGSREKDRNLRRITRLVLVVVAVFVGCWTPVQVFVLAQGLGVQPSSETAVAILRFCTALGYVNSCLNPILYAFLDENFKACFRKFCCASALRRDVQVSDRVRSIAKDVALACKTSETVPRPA
Procedure, shortened: as §1

[1] = biological target: T5, Human neuropeptide Y (NPY-Y1) (Homo sapiens, UniProt P25929); assay: Radioligand binding, human neuropeptide Y NPY-Y1 membranes, FlashPlate, [125I]-PYY; details: compound at 10 μM, [125I]-PYY
T5 construct: purchased Perkin Elmer Biosignal
T5 sequence (P25929 1-384): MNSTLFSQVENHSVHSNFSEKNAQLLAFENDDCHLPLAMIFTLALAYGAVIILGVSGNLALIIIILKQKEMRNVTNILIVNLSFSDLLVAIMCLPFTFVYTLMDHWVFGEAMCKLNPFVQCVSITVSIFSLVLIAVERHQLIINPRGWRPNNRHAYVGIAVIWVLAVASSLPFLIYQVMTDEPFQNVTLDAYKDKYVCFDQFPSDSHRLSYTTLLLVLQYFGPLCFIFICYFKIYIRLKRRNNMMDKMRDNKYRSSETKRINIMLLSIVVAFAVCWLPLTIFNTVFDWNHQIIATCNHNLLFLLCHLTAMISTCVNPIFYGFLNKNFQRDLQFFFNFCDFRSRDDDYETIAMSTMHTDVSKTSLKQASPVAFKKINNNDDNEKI
Procedure, shortened: as §1

Human κ-Opioid (KOP) = biological target: T6, Human κ-Opioid (KOP) (Homo sapiens, UniProt P41145); assay: Radioligand binding, human κ-opioid (KOP) membranes, filtration, [3H]-Diprenorphine; details: compound at 10 μM, [3H]-Diprenorphine
T6 construct: purchased Perkin Elmer Biosignal
T6 sequence (P41145 whole entry): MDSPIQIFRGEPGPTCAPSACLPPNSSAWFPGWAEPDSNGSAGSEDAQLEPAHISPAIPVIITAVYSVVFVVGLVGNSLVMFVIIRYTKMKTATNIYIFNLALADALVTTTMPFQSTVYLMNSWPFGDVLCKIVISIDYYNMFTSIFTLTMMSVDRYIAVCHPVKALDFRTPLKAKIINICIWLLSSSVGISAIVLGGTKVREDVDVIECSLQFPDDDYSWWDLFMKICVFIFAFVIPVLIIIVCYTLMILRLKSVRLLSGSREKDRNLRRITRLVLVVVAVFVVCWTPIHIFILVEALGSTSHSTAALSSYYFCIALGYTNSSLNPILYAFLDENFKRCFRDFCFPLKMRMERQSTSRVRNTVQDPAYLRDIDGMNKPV
Procedure, shortened: as §2

Human Melanocortin (MC4) = biological target: T7, Human Melanocortin (MC4) (Homo sapiens, UniProt P32245); assay: Radioligand binding, human melanocortin MC4 membranes, FlashPlate, [125I]-NDP-αMSH; details: compound at 10 μM, [125I]-NDP-αMSH
T7 construct: purchased Perkin Elmer Biosignal
T7 sequence (P32245 whole entry): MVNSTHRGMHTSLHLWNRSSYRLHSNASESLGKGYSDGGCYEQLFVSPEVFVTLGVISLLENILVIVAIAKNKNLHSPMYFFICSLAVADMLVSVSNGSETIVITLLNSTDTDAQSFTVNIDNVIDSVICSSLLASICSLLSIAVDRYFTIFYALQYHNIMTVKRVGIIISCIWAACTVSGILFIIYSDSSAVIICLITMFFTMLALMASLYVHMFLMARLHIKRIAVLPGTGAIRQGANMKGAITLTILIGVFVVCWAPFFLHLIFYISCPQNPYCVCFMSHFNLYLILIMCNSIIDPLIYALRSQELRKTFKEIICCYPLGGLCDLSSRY
Procedure, shortened: as §1

[2] = biological target: T8, Human melanin-concentrating hormone (MCH1) (Homo sapiens, UniProt Q99705); assay: Radioligand binding, human melanin-concentrating hormone MCH1 membranes, FlashPlate, [125I]-S36057; details: compound at 10 μM; for A6 radioligand binding, percentage inhibition / A6: inhibition of radioligand binding, human melanin-concentrating hormone (MCH1): [125I]-S36057
T8 construct: purchased Perkin Elmer Biosignal
T8 sequence (Q99705 whole entry): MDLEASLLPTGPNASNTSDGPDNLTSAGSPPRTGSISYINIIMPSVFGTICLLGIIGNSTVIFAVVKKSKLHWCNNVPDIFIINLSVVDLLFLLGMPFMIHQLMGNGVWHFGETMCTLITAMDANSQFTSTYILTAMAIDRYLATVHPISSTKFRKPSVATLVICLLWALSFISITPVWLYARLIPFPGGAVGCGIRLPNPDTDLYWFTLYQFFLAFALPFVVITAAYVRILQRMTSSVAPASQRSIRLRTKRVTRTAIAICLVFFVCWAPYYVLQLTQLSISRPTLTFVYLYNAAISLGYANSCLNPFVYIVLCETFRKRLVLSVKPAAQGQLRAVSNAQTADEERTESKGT
Procedure, shortened: as §1

Human δ-opioid (DOP) = biological target: T9, Human δ-opioid (DOP) (Homo sapiens, UniProt P41143); assay: Radioligand binding, human δ-opioid (DOP) membranes, FlashPlate, [3H]-Bremazocine; details: compound at 10 μM, [3H]-Bremazocine
T9 construct: purchased Perkin Elmer Biosignal
T9 sequence (P41143 whole entry): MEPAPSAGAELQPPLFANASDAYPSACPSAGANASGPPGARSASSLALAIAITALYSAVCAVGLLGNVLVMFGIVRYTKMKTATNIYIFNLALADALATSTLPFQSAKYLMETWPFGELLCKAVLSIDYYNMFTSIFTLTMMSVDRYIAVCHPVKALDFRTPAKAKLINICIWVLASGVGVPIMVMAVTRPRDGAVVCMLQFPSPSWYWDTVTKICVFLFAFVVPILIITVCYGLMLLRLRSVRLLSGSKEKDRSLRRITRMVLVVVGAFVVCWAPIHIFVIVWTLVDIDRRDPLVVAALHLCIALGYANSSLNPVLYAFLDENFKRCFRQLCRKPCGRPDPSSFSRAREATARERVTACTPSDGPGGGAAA
Procedure, shortened: as §1

Human Melanocortin (MC3) = biological target: T10, Human Melanocortin (MC3) (Homo sapiens, UniProt P41968); assay: Radioligand binding, human melanocortin MC3 membranes, FlashPlate, [125I]-NDP-αMSH; details: compound at 10 μM, [125I]-NDP-αMSH
T10 construct: purchased Perkin Elmer Biosignal
T10 sequence (P41968 whole entry): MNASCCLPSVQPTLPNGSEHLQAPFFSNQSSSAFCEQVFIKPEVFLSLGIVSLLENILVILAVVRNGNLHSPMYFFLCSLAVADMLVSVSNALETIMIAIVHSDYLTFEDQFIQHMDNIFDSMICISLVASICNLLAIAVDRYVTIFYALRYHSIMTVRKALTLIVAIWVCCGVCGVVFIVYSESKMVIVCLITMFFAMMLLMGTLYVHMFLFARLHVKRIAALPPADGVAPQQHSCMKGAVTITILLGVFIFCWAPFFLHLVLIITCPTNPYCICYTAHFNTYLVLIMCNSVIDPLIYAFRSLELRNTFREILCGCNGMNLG
Procedure, shortened: as §1

Mouse urotensin (mUR2) = biological target: T11, Mouse urotensin (mUR2) (Mus musculus, UniProt Q8VIH9); assay: Radioligand binding, mouse urotensin mUR2 membranes, FlashPlate, [125I]-Urotensin II; details: compound at 10 μM, [125I]-Urotensin II
T11 construct: purchased Perkin Elmer Biosignal
T11 sequence (Q8VIH9 1-385): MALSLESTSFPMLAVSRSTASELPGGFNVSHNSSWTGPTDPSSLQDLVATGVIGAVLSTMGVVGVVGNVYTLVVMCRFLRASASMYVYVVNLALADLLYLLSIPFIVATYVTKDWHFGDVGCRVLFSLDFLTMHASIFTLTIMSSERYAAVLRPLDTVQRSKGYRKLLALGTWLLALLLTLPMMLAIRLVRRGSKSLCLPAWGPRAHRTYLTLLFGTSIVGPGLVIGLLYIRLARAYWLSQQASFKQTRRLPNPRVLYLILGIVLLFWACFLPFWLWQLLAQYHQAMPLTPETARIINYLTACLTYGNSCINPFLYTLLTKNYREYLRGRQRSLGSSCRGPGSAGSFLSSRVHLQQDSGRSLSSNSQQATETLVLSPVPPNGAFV
Procedure, shortened: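 Cloned mouse urotensin (mUR2) receptor membranes from Perkin Elmer Biosignal were immobilized in FlashPlate microplates using a proprietary coating. Each well got 19.5 μl buffer, then 0.5 μl of DMSO, reference ligand, or compound. Adding 5 μl of [125I]-Urotensin II, diluted to 5× final concentration in binding buffer, started binding. Plates were sealed with TopSeal-A and incubated 1 hour at room temperature in the dark. Wells were counted for 30 seconds each on a TopCount after a 60-second delay, and percentage inhibition was calculated.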

T1 sequence (P33032 whole entry): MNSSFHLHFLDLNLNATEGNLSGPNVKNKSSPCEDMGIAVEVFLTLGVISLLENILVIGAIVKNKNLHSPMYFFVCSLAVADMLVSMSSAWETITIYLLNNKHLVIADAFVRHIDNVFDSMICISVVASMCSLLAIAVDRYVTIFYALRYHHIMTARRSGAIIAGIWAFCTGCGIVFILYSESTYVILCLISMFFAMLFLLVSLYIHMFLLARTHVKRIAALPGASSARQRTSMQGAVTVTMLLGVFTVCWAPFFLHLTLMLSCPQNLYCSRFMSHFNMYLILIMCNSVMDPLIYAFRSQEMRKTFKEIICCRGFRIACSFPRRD

Structure (SMILES) | A5 radioligand binding, percentage inhibition (Human melanocortin (MC5)) | A8 radioligand binding, percentage inhibition (Human neurokinin (NK1)) | A7 radioligand binding, percentage inhibition (Human μ-opioid (MOP)) | A10 radioligand binding, percentage inhibition (Human opioid (ORL1)) | A9 radioligand binding, percentage inhibition [1] | A2 radioligand binding, percentage inhibition (Human κ-Opioid (KOP)) | A4 radioligand binding, percentage inhibition (Human Melanocortin (MC4)) | A6 radioligand binding, percentage inhibition [2] | A1 radioligand binding, percentage inhibition (Human δ-opioid (DOP)) | A3 radioligand binding, percentage inhibition (Human Melanocortin (MC3)) | A11 radioligand binding, percentage inhibition (Mouse urotensin (mUR2)) | A5: inhibition of radioligand binding, human melanocortin (MC5) (Human melanocortin (MC5)) | A8: inhibition of radioligand binding, human neurokinin (NK1) (Human neurokinin (NK1)) | A7: inhibition of radioligand binding, human μ-opioid (MOP) (Human μ-opioid (MOP)) | A10: inhibition of radioligand binding, human opioid (ORL1) (Human opioid (ORL1)) | A9: inhibition of radioligand binding, human neuropeptide Y (NPY-Y1) [1] | A2: inhibition of radioligand binding, human κ-opioid (KOP) (Human κ-Opioid (KOP)) | A4: inhibition of radioligand binding, human melanocortin (MC4) (Human Melanocortin (MC4)) | A6: inhibition of radioligand binding, human melanin-concentrating hormone (MCH1) [2] | A1: inhibition of radioligand binding, human δ-opioid (DOP) (Human δ-opioid (DOP)) | further results
CO[C@H]1[C@H](O)[C@@H](COCc2ccc(-c3ccccc3)cc2)OC(OCc2cccc(O)c2)[C@@H]1NC(=O)CCCN (stereo partly shown) [compound 164] | − (“−” indicates less than 50% inhibition at 10 μM) | + (“+” indicates greater than 50% inhibition at 10 μM) | − (“−” indicates less than 50% inhibition at 10 μM) | − (“−” indicates less than 50% inhibition at 10 μM) | − (“−” indicates less than 50% inhibition at 10 μM) | − (“−” indicates less than 50% inhibition at 10 μM) | + (“+” indicates greater than 50% inhibition at 10 μM) | − (“−” indicates less than 50% inhibition at 10 μM) | − (“−” indicates less than 50% inhibition at 10 μM) | − (“−” indicates less than 50% inhibition at 10 μM) | − (“−” indicates less than 50% inhibition at 10 μM) | – | – | – | – | – | – | – | – | – | –
COCC1OC(OCCc2ccccc2)C(NC(=O)CN)C(OCc2ccccc2)C1O (stereo not shown) [compound 214] | – | – | – | – | – | – | – | – | – | – | – | – | – | – | – | – | – | – | – | – | A5: inhibition of radioligand binding (Human melanocortin (MC5); FlashPlate): − (“−” indicates less than 50% inhibition at 10 μM); A8: inhibition of radioligand binding (Human neurokinin (NK1); filtration): + (“+” indicates greater than 50% inhibition at 10 μM); A7: inhibition of radioligand binding (Human μ-opioid (MOP); FlashPlate): − (“−” indicates less than 50% inhibition at 10 μM); A10: inhibition of radioligand binding (Human opioid (ORL1); FlashPlate): − (“−” indicates less than 50% inhibition at 10 μM); A9: inhibition of radioligand binding ([1]; FlashPlate): − (“−” indicates less than 50% inhibition at 10 μM); A2: inhibition of radioligand binding (Human κ-Opioid (KOP); filtration): − (“−” indicates less than 50% inhibition at 10 μM); A4: inhibition of radioligand binding (Human Melanocortin (MC4); FlashPlate): − (“−” indicates less than 50% inhibition at 10 μM); A6: inhibition of radioligand binding ([2]; [125I]-S36057, FlashPlate): − (“−” indicates less than 50% inhibition at 10 μM); A1: inhibition of radioligand binding (Human δ-opioid (DOP); FlashPlate): − (“−” indicates less than 50% inhibition at 10 μM); A3: inhibition of radioligand binding (Human Melanocortin (MC3); FlashPlate): − (“−” indicates less than 50% inhibition at 10 μM); A11: inhibition of radioligand binding (Mouse urotensin (mUR2); FlashPlate): − (“−” indicates less than 50% inhibition at 10 μM)
CSC1OC(COCc2ccccc2)C(O)C(OCc2cccc(N)c2)C1NC(=O)C=Cc1ccccc1 (stereo not shown) [compound 324] | – | – | – | – | – | – | – | – | – | – | – | − (“−” indicates less than 50% inhibition at 10 μM) | + (“+” indicates greater than 50% inhibition at 10 μM) | − (“−” indicates less than 50% inhibition at 10 μM) | − (“−” indicates less than 50% inhibition at 10 μM) | − (“−” indicates less than 50% inhibition at 10 μM) | − (“−” indicates less than 50% inhibition at 10 μM) | − (“−” indicates less than 50% inhibition at 10 μM) | − (“−” indicates less than 50% inhibition at 10 μM) | − (“−” indicates less than 50% inhibition at 10 μM) | A3: inhibition of radioligand binding, human melanocortin (MC3) (Human Melanocortin (MC3)): − (“−” indicates less than 50% inhibition at 10 μM); A11: inhibition of radioligand binding, mouse urotensin (mUR2) (Mouse urotensin (mUR2)): − (“−” indicates less than 50% inhibition at 10 μM)
CO[C@H]1[C@H](O)[C@@H](COCc2cccc(O)c2)OC(OCCc2ccccc2)[C@@H]1NC(=O)CCCNC(=N)N (stereo partly shown) [compound 161] | − (“−” indicates less than 50% inhibition at 10 μM) | + (“+” indicates greater than 50% inhibition at 10 μM) | − (“−” indicates less than 50% inhibition at 10 μM) | − (“−” indicates less than 50% inhibition at 10 μM) | − (“−” indicates less than 50% inhibition at 10 μM) | − (“−” indicates less than 50% inhibition at 10 μM) | − (“−” indicates less than 50% inhibition at 10 μM) | − (“−” indicates less than 50% inhibition at 10 μM) | − (“−” indicates less than 50% inhibition at 10 μM) | − (“−” indicates less than 50% inhibition at 10 μM) | − (“−” indicates less than 50% inhibition at 10 μM) | – | – | – | – | – | – | – | – | – | –
CSC1O[C@H](COCc2ccc3ccccc3c2)[C@@H](O)[C@@H](OCc2ccc(-c3ccccc3)cc2)[C@H]1NC(=O)CCNC(=N)N (stereo partly shown) [compound 298] | – | – | – | – | – | – | – | – | – | – | – | + (“+” indicates greater than 50% inhibition at 10 μM) | + (“+” indicates greater than 50% inhibition at 10 μM) | − (“−” indicates less than 50% inhibition at 10 μM) | − (“−” indicates less than 50% inhibition at 10 μM) | − (“−” indicates less than 50% inhibition at 10 μM) | − (“−” indicates less than 50% inhibition at 10 μM) | − (“−” indicates less than 50% inhibition at 10 μM) | − (“−” indicates less than 50% inhibition at 10 μM) | − (“−” indicates less than 50% inhibition at 10 μM) | A3: inhibition of radioligand binding, human melanocortin (MC3) (Human Melanocortin (MC3)): − (“−” indicates less than 50% inhibition at 10 μM); A11: inhibition of radioligand binding, mouse urotensin (mUR2) (Mouse urotensin (mUR2)): − (“−” indicates less than 50% inhibition at 10 μM)
